What was measured:
[1] = system: recombinant NL4-3 virus (nef section replaced with Renilla luciferase gene) in MT-2 cells; test: HIV cell culture assay (antiviral activity, luciferase readout in infected MT-2 cells); assay type: cell-based; details: Renilla, NL43
Method: HIV cell culture assay-MT-2 cells, 293T cells and the proviral DNA clone of NL4-3 virus were obtained from the NIH AIDS Research and Reference Reagent Program. MT-2 cells were propagated in RPMI 1640 media supplemented with 10% heat inactivated fetal bovine serum (FBS), 100 μg/ml penicillin G and up to 100 units/mL streptomycin. The 293T cells were propagated in DMEM media supplemented with 10% heat inactivated FBS, 100 μg/mL penicillin G and 100 μg/mL streptomycin. A recombinant NL4-3 proviral clone, in which a section of the nef gene was replaced with the Renilla luciferase gene, was used to make the reference virus used in these studies. The recombinant virus was prepared through transfection of the recombinant NL4-3 proviral clone into 293T cells using Transit-293 Transfection Reagent from Minis Bio LLC (Madison, WI). Supernatent was harvested after 2-3 days and the amount of virus present was titered in MT-2 cells using luciferase enzyme activity as a marker by measuring luciferase enzyme activity. Luciferase was quantitated using the EnduRen Live Cell Substrate from Promega (Madison, WI). Antiviral activities of compounds toward the recombinant virus were quantified by measuring luciferase activity in MT-2 cells infected for 4-5 days with the recombinant virus in the presence of serial dilutions of the compound.
The 50% effective concentration (EC50) was calculated by using the exponential form of the median effect equation where (Fa)=1/[1+(ED50/drug conc.)m] (Johnson V A, Byington R T. Infectivity Assay. In Techniques in HIV Research. ed. Aldovini A, Walker B D. 71-76. New York: Stockton Press. 1990).

[2] = Compound cytotoxicity, XTT-based colorimetric assay; assay type: cell-based; details: human; uninfected MT2 cells, day 4, XTT assay
Method: Compound cytotoxicity and the corresponding CC50 values were determined using the same protocol as described in the antiviral assay except that uninfected cells were used. Cytotoxicity was assessed on day 4 in uninfected MT2 cells by using an XTT (2,3-bis[2-Methoxy-4-nitro-5-sulfophenyl]-2H-tetrazolium-5-carboxyanilide inner salt)-based colorimetric assay (Sigma-Aldrich, St Louis, Mo.).

Structure (SMILES) | EC50 [1] | CC50 at 4 days [2]
CC(C)OCCOc1ccc2c(=O)n(-c3ccc(Cl)c4c(NS(C)(=O)=O)nn(C)c34)c([C@H](Cc3cc(F)cc(F)c3)NC(=O)Cn3nc(C(F)F)c4c3C(F)(F)[C@@H]3C[C@H]43)nc2n1 (atropisomer, axis not shown; (P)) [Example 4, N—((S)-1-((3P)-3-(4-chloro-1-methyl-3-(methylsulfonamido)-1H-indazol-7-yl)-7-(2-isopropoxyethoxy)-4-oxo-3,4-dihydropyrido[2,3-d]pyrimidin-2-yl)-2-(3,5-difluorophenyl)ethyl)-2-((3bS,4aR)-3-(difluoromethyl)-5,5-difluoro-3b,4,4a,5-tetrahydro-1H-cyclopropa[3,4]cyclopenta[1,2-c]pyrazol-1-yl)acetamide] | < 0.05 nM | > 1000 nM
Cn1nc(NS(C)(=O)=O)c2c(Cl)ccc(-n3c([C@H](Cc4cc(F)cc(F)c4)NC(=O)Cn4nc(C(F)F)c5c4C(F)(F)[C@@H]4C[C@H]54)nc4nc(OCCN5CCS(=O)(=O)CC5)ccc4c3=O)c21 (atropisomer, axis not shown; (P)) [Example 7, N—((S)-1-((3P)-3-(4-chloro-1-methyl-3-(methylsulfonamido)-1H-indazol-7-yl)-7-(2-(1,1-dioxidothiomorpholino)ethoxy)-4-oxo-3,4-dihydropyrido[2,3-d]pyrimidin-2-yl)-2-(3,5-difluorophenyl)ethyl)-2-((3bS,4aR)-3-(difluoromethyl)-5,5-difluoro-3b,4,4a,5-tetrahydro-1H-cyclopropa[3,4]cyclopenta[1,2-c]pyrazol-1-yl)acetamide] | 0.26 nM | > 1000 nM
Cn1nc(NS(C)(=O)=O)c2c(Cl)ccc(-n3c([C@H](Cc4cc(F)cc(F)c4)NC(=O)Cn4nc(C(F)F)c5c4C(F)(F)[C@@H]4C[C@H]54)nc4nc(OCCN5CCCCC5)ccc4c3=O)c21 (atropisomer, axis not shown; (P)) [Example 11, N—((S)-1-((3P)-3-(4-chloro-1-methyl-3-(methylsulfonamido)-1H-indazol-7-yl)-4-oxo-7-(2-(piperidin-1-yl)ethoxy)-3,4-dihydropyrido[2,3-d]pyrimidin-2-yl)-2-(3,5-difluorophenyl)ethyl)-2-((3bS,4aR)-3-(difluoromethyl)-5,5-difluoro-3b,4,4a,5-tetrahydro-1H-cyclopropa[3,4]cyclopenta[1,2-c]pyrazol-1-yl)acetamide] | 0.49 nM | > 1000 nM
CC(C)(C)CCOc1ccc2c(=O)n(-c3ccc(Cl)c4c(NS(C)(=O)=O)nn(CC(F)F)c34)c([C@H](Cc3cc(F)cc(F)c3)NC(=O)Cn3nc(C(F)F)c4c3C(F)(F)[C@@H]3C[C@H]43)nc2n1 (atropisomer, axis not shown; (P)) [Example 14, N—((S)-1-((3P)-3-(4-chloro-1-(2,2-difluoroethyl)-3-(methylsulfonamido)-1H-indazol-7-yl)-7-(3,3-dimethylbutoxy)-4-oxo-3,4-dihydropyrido[2,3-d]pyrimidin-2-yl)-2-(3,5-difluorophenyl)ethyl)-2-((3bS,4aR)-3-(difluoromethyl)-5,5-difluoro-3b,4,4a,5-tetrahydro-1H-cyclopropa[3,4]cyclopenta[1,2-c]pyrazol-1-yl)acetamide] | 0.12 nM | > 500 nM
C[C@@H](Oc1ccc2c(=O)n(-c3ccc(Cl)c4c(NS(C)(=O)=O)nn(C)c34)c([C@H](Cc3cc(F)cc(F)c3)NC(=O)Cn3nc(C(F)F)c4c3C(F)(F)[C@@H]3C[C@H]43)nc2n1)C1CCCC1 (atropisomer, axis not shown; (P)) [Example 16, N—((S)-1-((3P)-3-(4-chloro-1-methyl-3-(methylsulfonamido)-1H-indazol-7-yl)-7-((R)-1-cyclopentylethoxy)-4-oxo-3,4-dihydropyrido[2,3-d]pyrimidin-2-yl)-2-(3,5-difluorophenyl)ethyl)-2-((3bS,4aR)-3-(difluoromethyl)-5,5-difluoro-3b,4,4a,5-tetrahydro-1H-cyclopropa[3,4]cyclopenta[1,2-c]pyrazol-1-yl)acetamide] | 0.22 nM | > 500 nM
Cn1nc(NS(C)(=O)=O)c2c(Cl)ccc(-n3c([C@H](Cc4cc(F)cc(F)c4)NC(=O)Cn4nc(C(F)F)c5c4C(F)(F)[C@@H]4C[C@H]54)nc4nc(OCCc5nccs5)ccc4c3=O)c21 (atropisomer, axis not shown; (P)) [Example 18, N—((S)-1-((3P)-3-(4-chloro-1-methyl-3-(methylsulfonamido)-1H-indazol-7-yl)-4-oxo-7-(2-(thiazol-2-yl)ethoxy)-3,4-dihydropyrido[2,3-d]pyrimidin-2-yl)-2-(3,5-difluorophenyl)ethyl)-2-((3bS,4aR)-3-(difluoromethyl)-5,5-difluoro-3b,4,4a,5-tetrahydro-1H-cyclopropa[3,4]cyclopenta[1,2-c]pyrazol-1-yl)acetamide] | 0.038 nM | > 500 nM
Cn1nc(NS(C)(=O)=O)c2c(Cl)ccc(-n3c([C@H](Cc4cc(F)cc(F)c4)NC(=O)Cn4nc(C(F)F)c5c4C(F)(F)[C@@H]4C[C@H]54)nc4nc(OCCCS(C)(=O)=O)ccc4c3=O)c21 (atropisomer, axis not shown; (P)) [Example 20, N—((S)-1-((3P)-3-(4-chloro-1-methyl-3-(methylsulfonamido)-1H-indazol-7-yl)-7-(3-(methylsulfonyl)propoxy)-4-oxo-3,4-dihydropyrido[2,3-d]pyrimidin-2-yl)-2-(3,5-difluorophenyl)ethyl)-2-((3bS,4aR)-3-(difluoromethyl)-5,5-difluoro-3b,4,4a,5-tetrahydro-1H-cyclopropa[3,4]cyclopenta[1,2-c]pyrazol-1-yl)acetamide] | 0.18 nM | > 500 nM
C[C@H](Oc1ccc2c(=O)n(-c3ccc(Cl)c4c(NS(C)(=O)=O)nn(C)c34)c([C@H](Cc3cc(F)cc(F)c3)NC(=O)Cn3nc(C(F)F)c4c3C(F)(F)[C@@H]3C[C@H]43)nc2n1)C1CCCC1 (atropisomer, axis not shown; (P)) [Example 23, N—((S)-1-((3P)-3-(4-chloro-1-methyl-3-(methylsulfonamido)-1H-indazol-7-yl)-7-((S)-1-cyclopentylethoxy)-4-oxo-3,4-dihydropyrido[2,3-d]pyrimidin-2-yl)-2-(3,5-difluorophenyl)ethyl)-2-((3bS,4aR)-3-(difluoromethyl)-5,5-difluoro-3b,4,4a,5-tetrahydro-1H-cyclopropa[3,4]cyclopenta[1,2-c]pyrazol-1-yl)acetamide] | 0.17 nM | > 500 nM
Cn1nc(NS(C)(=O)=O)c2c(Cl)ccc(-n3c([C@H](Cc4cc(F)cc(F)c4)NC(=O)Cn4nc(C(F)F)c5c4C(F)(F)[C@@H]4C[C@H]54)nc4nc(OCCC5CC5)ccc4c3=O)c21 (atropisomer, axis not shown; (P)) [Example 24, N—((S)-1-((3P)-3-(4-chloro-1-methyl-3-(methylsulfonamido)-1H-indazol-7-yl)-7-(2-cyclopropylethoxy)-4-oxo-3,4-dihydropyrido[2,3-d]pyrimidin-2-yl)-2-(3,5-difluorophenyl)ethyl)-2-((3bS,4aR)-3-(difluoromethyl)-5,5-difluoro-3b,4,4a,5-tetrahydro-1H-cyclopropa[3,4]cyclopenta[1,2-c]pyrazol-1-yl)acetamide] | 0.051 nM | > 500 nM
CC(C)COCCOc1ccc2c(=O)n(-c3ccc(Cl)c4c(NS(C)(=O)=O)nn(C)c34)c([C@H](Cc3cc(F)cc(F)c3)NC(=O)Cn3nc(C(F)F)c4c3C(F)(F)[C@@H]3C[C@H]43)nc2n1 (atropisomer, axis not shown; (P)) [Example 25, N—((S)-1-((3P)-3-(4-chloro-1-methyl-3-(methylsulfonamido)-1H-indazol-7-yl)-7-(2-isobutoxyethoxy)-4-oxo-3,4-dihydropyrido[2,3-d]pyrimidin-2-yl)-2-(3,5-difluorophenyl)ethyl)-2-((3bS,4aR)-3-(difluoromethyl)-5,5-difluoro-3b,4,4a,5-tetrahydro-1H-cyclopropa[3,4]cyclopenta[1,2-c]pyrazol-1-yl)acetamide] | 0.054 nM | > 100 nM
Cn1nc(NS(C)(=O)=O)c2c(Cl)ccc(-n3c([C@H](Cc4cc(F)cc(F)c4)NC(=O)Cn4nc(C(F)F)c5c4C(F)(F)[C@@H]4C[C@H]54)nc4nc(OCc5ccccc5)ccc4c3=O)c21 (atropisomer, axis not shown; (P)) [Example 26, N—((S)-1-(7-(benzyloxy)-(3P)-3-(4-chloro-1-methyl-3-(methylsulfonamido)-1H-indazol-7-yl)-4-oxo-3,4-dihydropyrido[2,3-d]pyrimidin-2-yl)-2-(3,5-difluorophenyl)ethyl)-2-((3bS,4aR)-3-(difluoromethyl)-5,5-difluoro-3b,4,4a,5-tetrahydro-1H-cyclopropa[3,4]cyclopenta[1,2-c]pyrazol-1-yl)acetamide] | 0.1 nM | > 100 nM
